Consider 29 compounds from patent publication US20260297070A1, “CYCLIC [COMPOUND LEFT OUT] WRN INHIBITORS” (Nimbus Wadjet, Inc., priority 2023, published 2026).

The assay has as its target T1, human Werner helicase (WRN-BV08, Uniprot Q14191, amino acids 517-1235 with L1074F point mutation) (Homo sapiens, UniProt Q14191, L1074F).
T1 construct: Uniprot Q14191, amino acids 517-1235 with L1074F point mutation; TEV-cleavable 8×His (C, cleaved yes); made in house; host or cells: Sf9 insect cells (baculovirus)
As to the kind of experiment: WRN (BV08) ADP-Glo Assay. The format is biochemical. Conditions: 0.15 nM WRN, 5 μM ATP, 0.1 nM DNA duplex, 15 min preincubation, 60 min at 25° C., pH 7.5, 1% DMSO; read-out: ADP-Glo_hWRN_IC50. In outline: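 Untagged WRN (Sf9-expressed, TEV-cleaved) at 0.15 nM was preincubated 15 min at 25 °C with compound, then reacted 60 min at 25 °C with 5 μM ATP and 0.1 nM DNA duplex in Bicine pH 7.5, 1 mM MgCl2. ADP-Glo luminescence gave % inhibition; IC50 by four-parameter fit.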
In general terms: In ADP-Glo the light output rises with the ADP produced.

Structures are written as SMILES. pIC50: −log10 of the molar value. Where only a bound is given, the exact number is not on record here.

T1 sequence (Q14191 with tags, fused parts or gaps L1074F limits assumed): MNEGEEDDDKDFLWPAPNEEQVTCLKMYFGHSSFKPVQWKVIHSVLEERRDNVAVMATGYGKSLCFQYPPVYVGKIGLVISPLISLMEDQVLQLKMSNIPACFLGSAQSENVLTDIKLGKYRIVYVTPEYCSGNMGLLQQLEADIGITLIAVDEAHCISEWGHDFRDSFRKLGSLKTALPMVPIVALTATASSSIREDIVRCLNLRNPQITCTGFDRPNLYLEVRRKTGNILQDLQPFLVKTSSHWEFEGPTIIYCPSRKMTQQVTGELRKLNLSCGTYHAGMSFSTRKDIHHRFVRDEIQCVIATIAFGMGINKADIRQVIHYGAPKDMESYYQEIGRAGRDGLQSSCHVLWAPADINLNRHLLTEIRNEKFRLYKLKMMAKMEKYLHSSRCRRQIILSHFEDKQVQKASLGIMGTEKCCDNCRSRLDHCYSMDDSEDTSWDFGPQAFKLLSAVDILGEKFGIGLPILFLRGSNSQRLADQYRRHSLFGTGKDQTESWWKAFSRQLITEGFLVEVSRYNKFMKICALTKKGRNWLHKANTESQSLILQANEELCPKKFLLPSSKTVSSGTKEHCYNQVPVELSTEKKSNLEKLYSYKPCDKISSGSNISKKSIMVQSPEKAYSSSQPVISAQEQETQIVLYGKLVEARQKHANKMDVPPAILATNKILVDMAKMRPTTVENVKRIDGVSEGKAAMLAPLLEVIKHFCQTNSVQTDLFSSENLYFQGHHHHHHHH

Take `COCC(C(=O)N(Cc1ccnc(C(C)(C)O)c1)C1C=CS(=O)(=O)C1)c1ccc(-c2ccc(F)c(F)c2)cc1F` (centres unmarked) [I-195, N-(1,1-dioxo-2,3-dihydro-1lambda6-thiophen-3-yl)-N-{[2-(2-hydroxypropan-2-yl)pyridin-4-yl]methyl}-3-methoxy-2-{3,3′,4′-trifluoro-[1,1′-biphenyl]-4-yl}propanamide]: the pIC50 is 5.30 to 6.30.
With `O=C(Cc1ccc(-n2cccc2)cc1)N(Cc1ccncc1)C1C=CS(=O)(=O)C1` (single isomer, unassigned) [I-490], the pIC50 was less than 4.30.
Turning to `Cc1cccn1-c1ccc(CC(=O)N(Cc2ccnc(N(C)C)c2)C2C=CS(=O)(=O)C2)c(F)c1` (centres unmarked) [I-96, N-{[2-(dimethylamino)pyridin-4-yl]methyl}-N-(1,1-dioxo-2,3-dihydro-1lambda6-thiophen-3-yl)-2-[2-fluoro-4-(2-methyl-1H-pyrrol-1-yl)phenyl]acetamide], the pIC50 was 5.30 to 6.30.
On to `COc1cc(CN(C(=O)C(c2ccc(-c3ccc(F)c(F)c3)cc2F)n2ccnn2)[C@@H]2C=CS(=O)(=O)C2)ccn1` (stereo partly drawn) [I-732, N-[(3R)-1,1-dioxo-2,3-dihydro-1lambda6-thiophen-3-yl]-N-[(2-methoxypyridin-4-yl)methyl]-2-(1H-1,2,3-triazol-1-yl)-2-{3,3′,4′-trifluoro-[1,1′-biphenyl]-4-yl}acetamide], for which the pIC50 was greater than 6.30.
As for `O=C(O)c1ccc(CN(C(=O)Cc2ccc(-n3cccc3)cc2F)C2C=CS(=O)(=O)C2)cc1` (centres unmarked) [I-185, 4-{[N-(1,1-dioxo-2,3-dihydro-1lambda6-thiophen-3-yl)-2-[2-fluoro-4-(1H-pyrrol-1-yl)phenyl]acetamido]methyl}benzoic acid], the pIC50 is 5.30 to 6.30.
For `Cn1nc(-c2ccccc2)cc1CC(=O)N(Cc1ccncc1)C1C=CS(=O)(=O)C1` (centres unmarked) [I-609, N-(1,1-dioxo-2,3-dihydro-1lambda6-thiophen-3-yl)-2-(1-methyl-3-phenyl-1H-pyrazol-5-yl)-N-[(pyridin-4-yl)methyl]acetamide], the pIC50 was less than 4.30.
The figure for `CS(=O)(=O)c1ccc(CN(C(=O)Cc2ccc(-n3cccc3)cc2)C2C=CS(=O)(=O)C2)cc1` (centres unmarked) [I-256, N-(1,1-dioxo-2,3-dihydro-1lambda6-thiophen-3-yl)-N-[(4-methanesulfonylphenyl)methyl]-2-[4-(1H-pyrrol-1-yl)phenyl]acetamide] is 5.00 to 5.30; for `N#Cc1ccc2c(CC(=O)N(Cc3ccncc3)C3C=CS(=O)(=O)C3)c[nH]c2c1` (centres unmarked) [I-546, 2-(6-cyano-1H-indol-3-yl)-N-(1,1-dioxo-2,3-dihydro-1lambda6-thiophen-3-yl)-N-[(pyridin-4-yl)methyl]acetamide] it is less than 4.30.
Regarding `O=C(Cc1ccc(-c2nccs2)cc1)N(Cc1ccncc1)C1C=CS(=O)(=O)C1` (centres unmarked) [I-466, N-(1,1-dioxo-2,3-dihydro-1lambda6-thiophen-3-yl)-N-[(pyridin-4-yl)methyl]-2-[4-(1,3-thiazol-2-yl)phenyl]acetamide], the pIC50 was less than 4.30.
The figure for `CC(C)(O)c1cc(CN(C(=O)Cc2ccc(-c3ccc(F)c(F)c3)cc2F)C2C=CS(=O)(=O)C2)ccn1` (single isomer, unassigned) [I-332] is 4.30 to 5.00; for `O=C(Cn1cc(-c2ccc(F)c(F)c2)cn1)N(Cc1nc([C@H]2C[C@H]2F)cs1)C1C=CS(=O)(=O)C1` (stereo partly drawn) [I-724, 2-[4-(3,4-difluorophenyl)-1H-pyrazol-1-yl]-N-(1,1-dioxo-2,3-dihydro-1lambda6-thiophen-3-yl)-N-({4-[(1R,2R)-2-fluorocyclopropyl]-1,3-thiazol-2-yl}methyl)acetamide] it is greater than 6.30.
For `O=C(CC1CCC(c2ccccc2)CC1)N(Cc1ccncc1)C1C=CS(=O)(=O)C1` (centres unmarked) [I-416, N-(1,1-dioxo-2,3-dihydro-1lambda6-thiophen-3-yl)-2-(4-phenylcyclohexyl)-N-[(pyridin-4-yl)methyl]acetamide], the pIC50 is less than 4.30.
With `CC(C)(O)c1csc(CN(C(=O)Cc2ccc(S(F)(F)(F)(F)F)cc2)C2C=CS(=O)(=O)C2)n1` (single isomer, unassigned) [I-708], the pIC50 is 5.00 to 5.30.
On to `O=C(Cn1cc(-c2ccc(F)cc2)cn1)N(Cc1nc(C2CC2)cs1)C1C=CS(=O)(=O)C1` (centres unmarked) [I-49, N-[(4-cyclopropyl-1,3-thiazol-2-yl)methyl]-N-(1,1-dioxo-2,3-dihydro-1lambda6-thiophen-3-yl)-2-[4-(4-fluorophenyl)-1H-pyrazol-1-yl]acetamide], for which the pIC50 is greater than 6.30.
Regarding `CC(C(=O)N(Cc1ccnc(C(C)(C)O)c1)[C@@H]1C=CS(=O)(=O)C1)n1ccc(-c2ccc(F)c(F)c2)cc1=O` (single isomer, unassigned) [I-769], the pIC50 is greater than 6.30.
`COc1cc(CN(C(=O)Cn2ccc(-c3ccc(F)cc3)cc2=O)[C@@H]2C=CS(=O)(=O)C2)ccn1` [I-660, N-[(3R)-1,1-dioxo-2,3-dihydro-1lambda6-thiophen-3-yl]-2-[4-(4-fluorophenyl)-2-oxo-1,2-dihydropyridin-1-yl]-N-[(2-methoxypyridin-4-yl)methyl]acetamide]: the pIC50 is greater than 6.30.
Take `COc1cc(CN(C(=O)C2Cc3cc(-n4cccc4)ccc32)C2C=CS(=O)(=O)C2)ccn1` (centres unmarked) [I-93, N-(1,1-dioxo-2,3-dihydro-1lambda6-thiophen-3-yl)-N-[(2-methoxypyridin-4-yl)methyl]-3-(1H-pyrrol-1-yl)bicyclo[4.2.0]octa-1,3,5-triene-7-carboxamide]: the pIC50 is 5.30 to 6.30.
Next, `CC(C)(O)c1cc(CN(C(=O)C(F)c2ccc(-c3ccc(F)c(F)c3)cc2F)C2C=CS(=O)(=O)C2)ccn1` (centres unmarked) [I-77, N-(1,1-dioxo-2,3-dihydro-1lambda6-thiophen-3-yl)-2-fluoro-N-{[2-(2-hydroxypropan-2-yl)pyridin-4-yl]methyl}-2-{3,3′,4′-trifluoro-[1,1′-biphenyl]-4-yl}acetamide]: greater than 6.30; `COc1cc(CN(C(=O)C(OCC#N)c2ccc(-c3ccc(F)c(F)c3)cc2F)[C@@H]2C=CS(=O)(=O)C2)ccn1` (single isomer, unassigned) [I-692, (2R*)-2-(cyanomethoxy)-N-[(3R)-1,1-dioxo-2,3-dihydro-1lambda6-thiophen-3-yl]-N-[(2-methoxypyridin-4-yl)methyl]-2-{3,3′,4′-trifluoro-[1,1′-biphenyl]-4-y]}acetamide]: 4.30 to 5.00; `CN(C)C(=O)C(C(=O)N(Cc1ccnc(C(C)(C)O)c1)C1C=CS(=O)(=O)C1)c1ccc(-c2ccc(F)cc2)cc1F` (single isomer, unassigned) [I-340, (2R**)-2-{3,4′-difluoro-[1,1′-biphenyl]-4-yl}-N-[(3R*)-1,1-dioxo-2,3-dihydro-1lambda6-thiophen-3-yl]-N-{[2-(2-hydroxypropan-2-yl)pyridin-4-yl]methyl}-N′,N′-dimethylpropanediamide]: 4.30 to 5.00.
The figure for `O=C(Cc1cccc(-n2cccc2)c1)N(Cc1ccncc1)C1C=CS(=O)(=O)C1` (centres unmarked) [I-528, N-(1,1-dioxo-2,3-dihydro-1lambda6-thiophen-3-yl)-N-[(pyridin-4-yl)methyl]-2-[3-(1H-pyrrol-1-yl)phenyl]acetamide] is less than 4.30.
Turning to `Cc1ccnn1-c1ccc(CC(=O)N(Cc2ccncc2)C2C=CS(=O)(=O)C2)cc1` (centres unmarked) [I-441, N-(1,1-dioxo-2,3-dihydro-1lambda6-thiophen-3-yl)-2-[4-(5-methyl-1H-pyrazol-1-yl)phenyl]-N-[(pyridin-4-yl)methyl]acetamide], the pIC50 is less than 4.30.
The figure for `O=C(Cc1ccc(-c2ccc(F)cc2)cc1)N(Cc1ccccc1)C1C=C(CO)S(=O)(=O)C1` (centres unmarked) [I-640, N-benzyl-2-{4′-fluoro-[1,1′-biphenyl]-4-yl}-N-[5-(hydroxymethyl)-1,1-dioxo-2,3-dihydro-1lambda6-thiophen-3-yl]acetamide] is less than 4.30.
Next, `O=C(Cc1ccc(-c2ccccc2)cc1)N(Cc1ccncc1)C1C=CS(=O)(=O)C1` (centres unmarked) [I-323, 2-{[1,1′-biphenyl]-4-yl}-N-(1,1-dioxo-2,3-dihydro-1lambda6-thiophen-3-yl)-N-[(pyridin-4-yl)methyl]acetamide]: 4.30 to 5.00.
`O=C(CC1CCN(c2ccccc2)CC1)N(Cc1ccncc1)C1C=CS(=O)(=O)C1` (centres unmarked) [I-552, N-(1,1-dioxo-2,3-dihydro-1lambda6-thiophen-3-yl)-2-(1-phenylpiperidin-4-yl)-N-[(pyridin-4-yl)methyl]acetamide]: the pIC50 was less than 4.30.
Next, `COc1cc(CN(C(=O)C(OC)c2ccc(-c3ccc(F)cc3)cc2F)C2C=CS(=O)(=O)C2)ccn1` (single isomer, unassigned) [I-405, (2R*)-2-{3,4′-difluoro-[1,1′-biphenyl]-4-yl}-N-[(3R**)-1,1-dioxo-2,3-dihydro-1lambda6-thiophen-3-yl]-2-methoxy-N-[(2-methoxypyridin-4-yl)methyl]acetamide]: less than 4.30; `O=C(C1CCc2ccc(Br)cc21)N(Cc1ccncc1)C1C=CS(=O)(=O)C1` (centres unmarked) [I-658, 6-bromo-N-(1,1-dioxo-2,3-dihydro-1lambda6-thiophen-3-yl)-N-[(pyridin-4-yl)methyl]-2,3-dihydro-1H-indene-1-carboxamide]: less than 4.30.
The figure for `CN(C)C(=O)CC(C(=O)N(Cc1ccncc1)C1C=CS(=O)(=O)C1)c1ccc(-n2cccc2)cc1` (centres unmarked) [I-551, N-(1,1-dioxo-2,3-dihydro-1lambda6-thiophen-3-yl)-N′,N′-dimethyl-N-[(pyridin-4-yl)methyl]-2-[4-(1H-pyrrol-1-yl)phenyl]butanediamide] is less than 4.30; for `O=C(O)c1ccc(CN(C(=O)Cc2ccc(-n3cccc3)cc2)C2C=CS(=O)(=O)C2)cc1` (centres unmarked) [I-275, 4-{[N-(1,1-dioxo-2,3-dihydro-1lambda6-thiophen-3-yl)-2-[4-(1H-pyrrol-1-yl)phenyl]acetamido]methyl}benzoic acid] it is 4.30 to 5.00.
